In patent US20100305047A1, “CYCLOSPORIN DERIVATIVES FOR ENHANCING THE GROWTH OF HAIR” (ALLERGAN, INC., priority 2009, published 2010):
Starred links: 1 amine or outer side, 2 acyl side, 3 side chain; linkers in the order of their positions; H or OH if unused. Non-standard residues stand in square brackets, D forms with d. Residues, ends and D or L forms follow the SMILES beside them. ξ: configuration not given here. ξNMeBmt = C/C=C/C[C@@H](C)[C@@H](O)C(NC)C(=O)O; X1 = CN(C(SCCNC(=N)N)C(=O)[*:2])[*:1]; NMeL = CN[C@@H](CC(C)C)C(=O)O; dNMeL = CN[C@H](CC(C)C)C(=O)O; NMeV = CN[C@H](C(=O)O)C(C)C; ξNMeL = CNC(CC(C)C)C(=O)O; dAbu = CC[C@@H](N)C(=O)O

System: lashes and hair around the eyes of patients
Test: In vivo treatment: appearance of lashes and hair around the eyes of patients treated in only one eye
Parameters: species or system human
Conditions: glaucoma patients, one drop daily to one eye
Description: A study is initiated to systematically evaluate the appearance of lashes and hair around the eyes of patients who are administering 3-[(2-Guanidyl)-ethylthio]-cyclosporin A (the cyclosporine A derivative of Example A, above) in only one eye. The study involves 10 subjects, 5 male, 5 female, average age 70 years, (ranging from 50-94 years). All patients have glaucoma. Each subject is treated daily by the topical application of one drop of the composition of Example 3, below, to provide 3-[(2-Guanidyl)-ethylthio]-cyclosporin A at a dosage of 1.5 µg/ml/eye/day, to the region of one eye by instilling the drop onto the surface of the eye. The region of the fellow control eye is not treated with 3-[(2-Guanidyl)-ethylthio]-cyclosporin A and serves as a control. The mean duration of exposure to 3-[(2-Guanidyl)-ethylthio]-cyclosporin A prior to assessing the parameter of lash growth between the control and study eye is 129 days (range 90-254 days). Observations are made under high magnification at the slit lamp biomicroscope. Documentation of differences between the control and treatment areas is accomplished using a camera specially adapted for use with the slit lamp biomicroscope.

[1] = 1.5 µg/ml/eye/day, mean exposure 129 days, vs untreated fellow eye, slit lamp biomicroscope

## C/C=C/C[C@@H](C)[C@@H](O)C1C(=O)N[C@H](CC)C(=O)N(C)C(SCCNC(=N)N)C(=O)N(C)[C@@H](CC(C)C)C(=O)N[C@H](C(C)C)C(=O)N(C)C(CC(C)C)C(=O)N[C@H](C)C(=O)N[C@@H](C)C(=O)N(C)[C@H](CC(C)C)C(=O)N(C)[C@H](CC(C)C)C(=O)N(C)[C@@H](C(C)C)C(=O)N1C (stereo partly shown) [3-[(2-Guanidyl)-ethylthio]-cyclosporin A] (cyclo(A[dNMeL][dNMeL][NMeV][ξNMeBmt][dAbu][X1][NMeL][dV][ξNMeL][dA]))
1.5 µg/ml/eye/day, mean exposure 129 days, vs untreated fellow eye, areas below and lateral to the lower lid
  Increased growth of vellus hair on lids: vellus hairs are increased in number, appear more robust and are much longer and thicker in treated than in control eyes
[1]
  Length of lashes: Increased length of eyelashes is regularly observed
  Number of lashes: Increased numbers of lashes are observed in the treated eye of each patient
lash-like hairs above the lash line and in the medial and lateral canthal areas
  Perpendicular angulation of hairs: the hairs are much longer, thicker and heavier. They also leave the surface of the skin at a more acute angle
